Test [1] relates to HCV replicon 1A. Kind of test: Cell-based HCV Replicon Assay A, replicon 1A. In short, it runs like this:
(§1)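 HCV replicon RNA levels are measured by multiplexed real-time RT-PCR, with cyclophilin as internal control, after 3 days of compound exposure. Compounds are tested in 10 serial dilutions starting between 333.3 nM and 1.667 nM, with 5% FBS in the medium.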
A general note: Replicon systems follow genome replication, usually without infectious particles.

In test [2] the test system is HCV replicon 1B. Kind of test: Cell-based HCV Replicon Assay B, replicon 1B. The procedure: In an alternate assay (“Replicon Assay B”), 1000 cells were seeded per well in a 384-well collagen coated black plate from Greiner bio-one (Cat #781946) in 5% FBS. Inhibitors of this invention were added at 24 h post-seeding, and the plates were incubated for 3 days. Cells were subsequently lysed with Qiagen lysis buffer (Cat #1062731) to extract the RNA. HCV replicon RNA level was measured by real-time PCR using the RNA-to-CT kit from Applied Biosystem (Cat #4392656) and genotype-specific primers and probes. The amplicon was located within NS5B. The sequence of the PCR primers are as follows: 5B.2F, ATGGACAGGCGCCCTGA (SEQ. ID NO. 1); 5B.2R, […] (SEQ. ID NO. 2); the probe sequence was FAM-labeled CACGCCATGCGCTGCGG (SEQ. ID NO. 3). To detect genotype 1A the primer 1A F, TGCGGAACCGGTGAGTACA and 1A R, […] were used; the probe sequence was FAM-[…].
The real-time RT-PCR reactions were run on ABI PRISM 7900HT or Viia7 Sequence Detection System using the following program: 48° C. for 30 minutes, 95° C. for 10 minutes, 40 cycles of 95° C. for 15 sec, 60° C. for 1 minutes. The 50% effective concentration (EC50) was the drug concentration necessary to achieve an increase in the cycle threshold (CT) of 1 over the projected baseline CT.
Data was obtained for various compounds of the present invention using the methods described in the Example above, and is presented in the table immediately below. Data for replicons 1A, 1AY93H and 2B were obtained using Replicon Assay A and data for replicons 1AQ30D and 1B were obtained using Replicon Assay B.

For test [3], the system named is HCV replicon 1AY93H. The experiment in a line: Cell-based HCV Replicon Assay A, replicon 1AY93H. Particulars: for IC50: Hepatitis C virus, read-out: 1A Y93H IC50 (nM), replicon 1AY93H. In short, it runs like this: as §1
Test [4] deals with HCV replicon 2B. Kind of test: Cell-based HCV Replicon Assay A, replicon 2B. Particulars: for IC50: Hepatitis C virus, read-out: 2B IC50 (nM), replicon 2B. An outline of the steps: as §1
Setting [5] is: read-out: 1A Y93H IC50, replicon 1AY93H.
The mark [6] stands for this setting: replicon 1AY93H, read-out: 1A Y93H IC50.

SMILES strings stand for the structures. pIC50: −log10 of the molar value. Where two headings read alike, the source gives them in different places.

By pIC50 is commonly meant the IC50 on a negative log10 scale, so that one unit is a factor of ten. As to `COC(=O)N[C@H](C(=O)N1CCC[C@H]1c1ncc(-c2cc(F)c3c(c2)OC(c2nc(C4CC4)sc2C)n2c-3cc3cc(-c4cnc([C@@H]5CCCN5C(=O)[C@@H](NC(=O)OC)C(C)C)[nH]4)ccc32)[nH]1)C(C)C` (mixture of isomers) [Compound 451], the pIC50 is 11.60 in test [1] (Hepatitis C virus) and 11.57 in test [2] (Hepatitis C virus).

Turning to `CCc1nnc(C2Oc3cc(-c4cnc([C@@H]5CCCN5C(=O)[C@@H](NC(=O)OC)C(C)C)[nH]4)cc(F)c3-c3cc4cc(-c5cnc([C@@H]6CCCN6C(=O)C(NC(=O)OC)C(C)C)[nH]5)ccc4n32)s1` (single isomer, unassigned) [Compound 114], the pIC50 is 11.57 in test [1] and 11.52 in test [2] (Hepatitis C virus).

Turning to `COC(=O)NC(C(=O)N1[C@@H]2C[C@@H]2C[C@H]1c1ncc(-c2ccc3c(c2)cc2n3C(c3cnc(C4CC4)s3)Oc3cc(-c4cnc([C@@H]5CCCN5C(=O)[C@@H](NC(=O)OC)C(C)C)[nH]4)cc(F)c3-2)[nH]1)C1C[C@@H](C)O[C@H](C)C1` (single isomer, unassigned) [Compound 312], the negative logarithm of the IC50 (pIC50) in test [1] is 11.60; in test [1] (Hepatitis C virus), 11.51; in test [2], 11.52; in test [2] (Hepatitis C virus), 11.70.

For the molecule `COC(=O)N[C@H](C(=O)N1CCC[C@H]1c1ncc(-c2cc(F)c3c(c2)OC(c2cnc(C4(C)CCCC4)s2)n2c-3cc3cc(-c4cnc([C@@H]5C[C@H]6C[C@H]6N5C(=O)[C@@H](NC(=O)OC)C(C)C)[nH]4)ccc32)[nH]1)C(C)C` (single isomer, unassigned) [Compound 455], the pIC50 in test [1] was 11.77; in test [2], 11.47; in test [3] (setting [5]), 9.01.

On to `COC(=O)N[C@H](C(=O)N1CCC[C@H]1c1ncc(-c2cc(F)c3c(c2)OC(c2cnc(C4CC4)s2)n2c-3c(C)c3cc(-c4cnc([C@@H]5CCCN5C(=O)[C@@H](NC(=O)OC)C(C)C)[nH]4)ccc32)[nH]1)C(C)C` (single isomer, unassigned) [Compound 496], for which the pIC50 in test [1] is 11.16; in test [2] it was 11.46.

The IC50 is the midpoint of a concentration-inhibition curve. Consider `COC(=O)N[C@H](C(=O)N1CCC[C@H]1c1ncc(-c2cc(F)c3c(c2)OC(c2cc(C)ns2)n2c-3cc3cc(-c4cnc([C@@H]5CCCN5C(=O)[C@@H](NC(=O)OC)C(C)C)[nH]4)ccc32)[nH]1)C(C)C` (single isomer, unassigned) [Compound 502], for which the values for the negative logarithm of the IC50 (pIC50) in test [1] (Hepatitis C virus) and in test [2] (Hepatitis C virus) were 11.80 and 11.60, respectively. For the same molecule, the IC50 in test [4] turned out to be 2.31 nM.

`COC(=O)N[C@H](C(=O)N1CCC[C@H]1c1ncc(-c2cc(F)c3c(c2)OC(c2nc4c(s2)CCC4)n2c-3cc3cc(-c4cnc([C@@H]5CCCN5C(=O)[C@@H](NC(=O)OC)C(C)C)[nH]4)ccc32)[nH]1)C(C)C` (single isomer, unassigned) [Compound 505]: the pIC50 in test [1] is 11.82; in test [4] (read-out: 2B IC50, replicon 2B), 9.66; in test [3] (setting [5]), 9.82.

Regarding `COC(=O)N[C@H](C(=O)N1CCC[C@H]1c1ncc(-c2cc(F)c3c(c2)OC(c2cnc(CC4CC4)s2)n2c-3cc3cc(-c4cnc([C@@H]5CCCN5C(=O)[C@@H](NC(=O)OC)C(C)C)[nH]4)ccc32)[nH]1)C(C)C` (single isomer, unassigned) [Compound 510], the pIC50 in test [1] was 12.00; in test [4] (replicon 2B, read-out: 2B IC50) it was 9.20; in test [3] (setting [6]) it was 9.20.

As to `COC(=O)N[C@H](C(=O)N1CCC[C@H]1c1ncc(-c2cc(F)c3c(c2)OC(c2sc(C(C)C)nc2C)n2c-3cc3cc(-c4cnc([C@@H]5CCCN5C(=O)[C@@H](NC(=O)OC)C(C)C)[nH]4)ccc32)[nH]1)C(C)C` (single isomer, unassigned) [Compound 516], the results for the negative-log IC50 (pIC50) in test [1], in test [2] and in test [3] (setting [5]) were 11.77, 11.59 and 8.49, respectively.

In the case of `COC(=O)N[C@H](C(=O)N1CCC[C@H]1c1ncc(-c2cc(F)c3c(c2)OC(c2cnc(C4CC4)s2)n2c-3cc3cc(-c4cnc([C@@H]5CC6(C)CC6N5C(=O)[C@@H](NC(=O)OC)C(C)C)[nH]4)ccc32)[nH]1)C(C)C` (single isomer, unassigned) [Compound 520], the negative-log IC50 (pIC50) in test [1] was 11.48; in test [2], 11.43; in test [3] (setting [6]), 8.57.

As for `COC(=O)N[C@H](C(=O)N1CCC[C@H]1c1ncc(-c2cc(F)c3c(c2)OC(c2sc(C4CC4)nc2C2CC2)n2c-3cc3cc(-c4cnc([C@@H]5CCCN5C(=O)[C@@H](NC(=O)OC)C(C)C)[nH]4)ccc32)[nH]1)C(C)C` (single isomer, unassigned) [Compound 525], the results for the negative-log IC50 (pIC50) in test [1] (Hepatitis C virus) and in test [2] (Hepatitis C virus) were 11.35 and 11.66, respectively.

With `COC(=O)N[C@H](C(=O)N1CCC[C@H]1c1ncc(-c2cc(F)c3c(c2)OC(c2sc(C4CC4)nc2C2CC2)n2c-3cc3cc(-c4cnc([C@@H]5CCCN5C(=O)[C@@H](NC(=O)OC)C(C)C)[nH]4)ccc32)[nH]1)C(C)C` (single isomer, unassigned) [Compound 526], the figures for the pIC50 in test [1] and in test [2] were 11.62 and 11.96, respectively. Further, in test [4], the half-maximal inhibitory concentration (IC50) amounted to 0.537 nM.

Consider `COC(=O)N[C@H](C(=O)N1CCC[C@H]1c1ncc(-c2cc(F)c3c(c2)OC(c2cnc(C4CCCCC4)s2)n2c-3cc3cc(-c4cnc([C@@H]5CCCN5C(=O)[C@@H](NC(=O)OC)C(C)C)[nH]4)ccc32)[nH]1)C(C)C` (single isomer, unassigned) [Compound 528], for which the pIC50 in test [1] was 11.85; in test [4] (read-out: 2B IC50, replicon 2B), 9.14; in test [3] (setting [5]) it was 8.94.

For the molecule `COC(=O)NC(C(=O)N1CCC[C@H]1c1ncc(-c2ccc3c(c2)cc2n3C(c3nc4c(s3)CCC4)Oc3cc(-c4cnc([C@@H]5CCCN5C(=O)[C@@H](NC(=O)OC)C(C)C)[nH]4)cc(F)c3-2)[nH]1)C1CCOC(C)(C)C1` (single isomer, unassigned) [Compound 536], the negative-log IC50 (pIC50) was 11.64 in test [1]; 11.57 in test [2]; 10.54 in test [4] (replicon 2B, read-out: 2B IC50).

As to `COC(=O)NC(C(=O)N1CCC[C@H]1c1ncc(-c2ccc3c(c2)cc2n3C(c3nc4c(s3)CCC4)Oc3cc(-c4cnc([C@@H]5CCCN5C(=O)[C@@H](NC(=O)OC)C(C)C)[nH]4)cc(F)c3-2)[nH]1)C1CCOC(C)(C)C1` (single isomer, unassigned) [Compound 537], the negative-log IC50 (pIC50) in test [1] (Hepatitis C virus) was 11.72. Further, the IC50 in test [4] is 0.198 nM; in test [3], 3.33 nM.

Turning to `COC(=O)NC(C(=O)N1CCC[C@H]1c1ncc(-c2ccc3c(c2)cc2n3C(c3cnc(CC4CC4)s3)Oc3cc(-c4cnc([C@@H]5CCCN5C(=O)[C@@H](NC(=O)OC)C(C)C)[nH]4)cc(F)c3-2)[nH]1)C1CCOC(C)(C)C1` (single isomer, unassigned) [Compound 538], the negative logarithm of the IC50 (pIC50) in test [1] is 11.92; in test [4] (replicon 2B, read-out: 2B IC50), 9.93; in test [3] (setting [6]), 9.24.

Regarding `COC(=O)NC(C(=O)N1CCC[C@H]1c1ncc(-c2ccc3c(c2)cc2n3C(c3cnc(CC(C)C)s3)Oc3cc(-c4cnc([C@@H]5CCCN5C(=O)[C@@H](NC(=O)OC)C(C)C)[nH]4)cc(F)c3-2)[nH]1)C1CCOC(C)(C)C1` (single isomer, unassigned) [Compound 542], the pIC50 in test [1] was 11.85; in test [4] (read-out: 2B IC50, replicon 2B) it was 9.91; in test [3] (setting [5]), 9.31.

As for `COC(=O)NC(C(=O)N1CCC[C@H]1c1ncc(-c2ccc3c(c2)cc2n3C(c3cnc(CC(C)C)s3)Oc3cc(-c4cnc([C@@H]5CCCN5C(=O)[C@@H](NC(=O)OC)C(C)C)[nH]4)cc(F)c3-2)[nH]1)C1CCOC(C)(C)C1` (single isomer, unassigned) [Compound 543], the negative logarithm of the IC50 (pIC50) in test [1] was 11.68; in test [4] (read-out: 2B IC50, replicon 2B), 9.82; in test [3] (setting [5]), 9.78.

`COC(=O)NC(C(=O)N1CCC[C@H]1c1ncc(-c2ccc3c(c2)cc2n3C(c3cnc(CC(C)C)s3)Oc3cc(-c4cnc([C@@H]5CCCN5C(=O)[C@@H](NC(=O)OC)C(C)C)[nH]4)cc(F)c3-2)[nH]1)C1C[C@@H](C)O[C@@H](C)C1` (single isomer, unassigned) [Compound 546]: the pIC50 in test [1] (Hepatitis C virus) was 11.85; in test [4] (read-out: 2B IC50, replicon 2B), 9.78; in test [3] (setting [5]) it was 9.50.

Molecule `COC(=O)N[C@H](C(=O)N1CCC[C@H]1c1ncc(-c2cc(F)c3c(c2)OC(c2cnc(-c4ccc(F)cc4F)s2)n2c-3cc3cc(-c4cnc([C@@H]5CCCN5C(=O)[C@@H](NC(=O)OC)C(C)C)[nH]4)ccc32)[nH]1)C(C)C` (stereo partly drawn) [Compound 55] gave a negative-log IC50 (pIC50) in test [1] (Hepatitis C virus) of 11.92. The 50% inhibitory concentration (IC50) in test [4] stood at 0.003 nM; in test [3] it was 0.0021 nM.

As for `COC(=O)N[C@H](C(=O)N1CCC[C@H]1c1ncc(-c2cc(F)c3c(c2)OC(c2cnc(-c4ccncn4)s2)n2c-3cc3cc(-c4cnc([C@@H]5CCCN5C(=O)[C@@H](NC(=O)OC)C(C)C)[nH]4)ccc32)[nH]1)C(C)C` (stereo partly drawn) [Compound 503], the pIC50 in test [1] (Hepatitis C virus) is 11.66. The IC50 stood at 0.362 nM in test [4] and 0.149 nM in test [3].
